In patent publication US10022447B2, “Solid pharmaceutical compositions containing pregabalin” (Warner-Lambert Company LLC, priority 2005, dated 2018):

Assay: Clinical studies of regional GI absorption of pregabalin
Type: in vivo
Details: humans
Description: Once daily dosing of pregabalin, however, presents numerous challenges. Conventional extended release (ER) compositions are problematic for QD dosing because pregabalin is not absorbed uniformly in the gastrointestinal (GI) tract. […] Furthermore, pregabalin is a γ-amino acid which under normal storage conditions may undergo intramolecular cyclization to form a lactam, 4-isobutyl-pyrrolidin-2-one. See, e.g., WO 99/10186 and WO 99/59573, both to A. Aomatsu. Although it is known that the non-active components of the pharmaceutical composition may affect lactam formation, it is difficult to predict which excipients may lead to undesirable lactam formation.

**Q.** What does the source list for `CC(C)C[C@H](CN)CC(=O)O` [pregabalin, (S)-(+)-3-aminomethyl-5-methyl-hexanoic acid]?
**A.** mean absorption window: about six hours or less; regional absorption in the GI tract: poorly absorbed beyond the hepatic flexure
